# Test results published in ChEMBL document CHEMBL1150976, “The selectivity of protein kinase inhibitors: a further update” (Biochem J, 2007).
# Experiments:
# [1] = biological target: T1, Inhibitor of nuclear factor kappa-B kinase subunit beta (Homo sapiens) (UniProt O14920); assay: Percentage IKK-beta activity remaining in the presence of 25uM inhibitor
# T1 sequence (whole entry): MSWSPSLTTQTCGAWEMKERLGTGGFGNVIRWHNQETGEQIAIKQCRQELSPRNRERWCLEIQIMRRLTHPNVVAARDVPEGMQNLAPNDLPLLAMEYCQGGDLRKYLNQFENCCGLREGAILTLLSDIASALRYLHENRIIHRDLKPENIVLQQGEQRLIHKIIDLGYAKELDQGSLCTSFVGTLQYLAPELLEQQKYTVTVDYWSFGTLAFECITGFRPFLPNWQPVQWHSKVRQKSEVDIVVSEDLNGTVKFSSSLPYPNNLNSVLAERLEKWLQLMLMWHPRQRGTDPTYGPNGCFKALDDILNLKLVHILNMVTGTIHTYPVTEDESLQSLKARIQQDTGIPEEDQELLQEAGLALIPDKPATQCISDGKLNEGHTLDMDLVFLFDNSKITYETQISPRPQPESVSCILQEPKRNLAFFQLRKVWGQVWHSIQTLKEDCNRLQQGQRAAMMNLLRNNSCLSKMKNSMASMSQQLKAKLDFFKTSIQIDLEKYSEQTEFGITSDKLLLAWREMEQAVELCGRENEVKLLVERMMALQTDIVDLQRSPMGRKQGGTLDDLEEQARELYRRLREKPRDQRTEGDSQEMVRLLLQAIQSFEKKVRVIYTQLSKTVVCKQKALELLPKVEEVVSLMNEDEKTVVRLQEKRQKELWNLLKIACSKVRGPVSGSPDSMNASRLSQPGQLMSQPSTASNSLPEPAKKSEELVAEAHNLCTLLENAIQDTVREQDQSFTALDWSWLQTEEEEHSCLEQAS
# [2] = biological target: RAC-beta serine/threonine-protein kinase (Homo sapiens) (UniProt P31751); assay: Percentage PKBbeta activity remaining in the presence of 25uM inhibitor
# RAC-beta serine/threonine-protein kinase (Homo sapiens), sequence (P31751 whole entry): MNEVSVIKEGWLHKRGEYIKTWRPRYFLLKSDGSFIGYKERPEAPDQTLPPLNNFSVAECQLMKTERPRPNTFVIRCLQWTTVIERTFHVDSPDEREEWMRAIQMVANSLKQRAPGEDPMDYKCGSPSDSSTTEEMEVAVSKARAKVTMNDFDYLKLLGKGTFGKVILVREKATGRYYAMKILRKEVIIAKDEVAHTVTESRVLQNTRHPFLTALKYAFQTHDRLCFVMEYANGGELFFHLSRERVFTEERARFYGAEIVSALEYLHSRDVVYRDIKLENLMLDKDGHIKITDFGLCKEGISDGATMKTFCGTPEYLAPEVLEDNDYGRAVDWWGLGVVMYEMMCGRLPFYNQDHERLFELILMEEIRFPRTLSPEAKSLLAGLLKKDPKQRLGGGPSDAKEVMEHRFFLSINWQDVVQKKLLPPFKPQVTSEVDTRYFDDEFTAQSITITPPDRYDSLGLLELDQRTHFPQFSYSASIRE
# [3] = biological target: Serine/threonine-protein kinase N2 (Homo sapiens) (UniProt Q16513); assay: Percentage PRK2 activity remaining in the presence of 25uM inhibitor
# Serine/threonine-protein kinase N2 (Homo sapiens), sequence (Q16513 whole entry, looked up): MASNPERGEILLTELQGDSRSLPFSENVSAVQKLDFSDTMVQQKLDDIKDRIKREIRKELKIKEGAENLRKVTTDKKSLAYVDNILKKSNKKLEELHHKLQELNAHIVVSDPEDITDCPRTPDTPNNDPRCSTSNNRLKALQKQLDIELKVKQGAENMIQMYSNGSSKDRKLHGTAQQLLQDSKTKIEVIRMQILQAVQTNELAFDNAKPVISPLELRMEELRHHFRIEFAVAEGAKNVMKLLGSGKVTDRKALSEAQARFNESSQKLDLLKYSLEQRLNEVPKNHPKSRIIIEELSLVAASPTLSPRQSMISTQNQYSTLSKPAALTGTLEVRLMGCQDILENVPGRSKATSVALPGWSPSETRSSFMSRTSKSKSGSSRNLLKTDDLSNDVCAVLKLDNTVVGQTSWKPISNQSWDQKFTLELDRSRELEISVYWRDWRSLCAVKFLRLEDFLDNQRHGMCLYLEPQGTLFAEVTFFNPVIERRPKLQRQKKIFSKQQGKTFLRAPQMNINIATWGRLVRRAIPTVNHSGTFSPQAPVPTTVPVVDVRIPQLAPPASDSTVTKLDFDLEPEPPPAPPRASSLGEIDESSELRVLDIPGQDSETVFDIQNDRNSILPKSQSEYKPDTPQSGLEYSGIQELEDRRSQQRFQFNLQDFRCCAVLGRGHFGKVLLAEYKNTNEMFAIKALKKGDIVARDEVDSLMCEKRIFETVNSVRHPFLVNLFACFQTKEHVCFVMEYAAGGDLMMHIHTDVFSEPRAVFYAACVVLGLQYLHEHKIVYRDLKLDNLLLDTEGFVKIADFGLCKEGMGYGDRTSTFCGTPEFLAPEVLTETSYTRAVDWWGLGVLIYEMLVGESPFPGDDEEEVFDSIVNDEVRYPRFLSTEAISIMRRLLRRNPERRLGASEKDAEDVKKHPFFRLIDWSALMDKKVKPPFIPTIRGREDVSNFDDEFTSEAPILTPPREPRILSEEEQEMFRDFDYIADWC
# [4] = biological target: Serine/threonine-protein kinase Nek7 (Homo sapiens) (UniProt Q8TDX7); assay: Percentage NEK7 activity remaining in the presence of 25uM inhibitor
# Serine/threonine-protein kinase Nek7 (Homo sapiens), sequence (Q8TDX7 whole entry, looked up): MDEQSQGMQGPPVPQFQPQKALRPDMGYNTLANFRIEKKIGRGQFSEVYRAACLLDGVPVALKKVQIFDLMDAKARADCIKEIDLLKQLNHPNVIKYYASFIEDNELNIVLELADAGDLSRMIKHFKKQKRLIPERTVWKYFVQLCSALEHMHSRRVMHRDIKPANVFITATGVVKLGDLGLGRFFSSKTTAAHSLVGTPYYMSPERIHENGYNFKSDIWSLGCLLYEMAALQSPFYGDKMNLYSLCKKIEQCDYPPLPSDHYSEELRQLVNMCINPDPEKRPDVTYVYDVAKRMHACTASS
# [5] = biological target: Ribosomal protein S6 kinase alpha-5 (Homo sapiens) (UniProt O75582); assay: Percentage MSK1 activity remaining in the presence of 25uM inhibitor
# Ribosomal protein S6 kinase alpha-5 (Homo sapiens), sequence (O75582 whole entry, looked up): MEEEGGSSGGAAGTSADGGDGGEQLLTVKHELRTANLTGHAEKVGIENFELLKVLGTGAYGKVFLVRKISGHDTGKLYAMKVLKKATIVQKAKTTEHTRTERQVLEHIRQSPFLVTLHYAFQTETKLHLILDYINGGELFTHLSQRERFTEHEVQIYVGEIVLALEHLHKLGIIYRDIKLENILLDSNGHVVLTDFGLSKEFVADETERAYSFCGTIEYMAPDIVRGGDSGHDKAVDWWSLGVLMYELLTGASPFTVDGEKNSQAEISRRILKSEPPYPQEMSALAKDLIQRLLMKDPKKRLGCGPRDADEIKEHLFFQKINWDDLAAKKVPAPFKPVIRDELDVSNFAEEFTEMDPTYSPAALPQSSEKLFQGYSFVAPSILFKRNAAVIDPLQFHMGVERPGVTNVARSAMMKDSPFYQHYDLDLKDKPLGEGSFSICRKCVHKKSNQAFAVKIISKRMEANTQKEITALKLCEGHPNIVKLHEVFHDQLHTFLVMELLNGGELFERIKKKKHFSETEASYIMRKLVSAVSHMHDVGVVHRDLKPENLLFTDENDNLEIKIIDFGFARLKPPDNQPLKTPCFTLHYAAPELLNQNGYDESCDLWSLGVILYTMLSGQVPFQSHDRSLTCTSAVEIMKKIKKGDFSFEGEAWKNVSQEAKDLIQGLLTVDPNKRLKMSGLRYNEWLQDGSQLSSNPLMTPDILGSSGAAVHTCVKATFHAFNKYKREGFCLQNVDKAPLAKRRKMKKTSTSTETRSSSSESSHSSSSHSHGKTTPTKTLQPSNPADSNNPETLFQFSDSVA
# [6] = biological target: Cyclin-dependent kinase 2/cyclin A (Homo sapiens) (UniProt P24941+P20248+P78396); assay: Percentage CDK2-cyclinA activity remaining in the presence of 25uM inhibitor; format: protein-complex assay
# [7] = biological target: Serine/threonine-protein kinase PAK 5 (Homo sapiens) (UniProt Q9P286); assay: Percentage PAK5 activity remaining in the presence of 25uM inhibitor
# Serine/threonine-protein kinase PAK 5 (Homo sapiens), sequence (Q9P286 whole entry, looked up): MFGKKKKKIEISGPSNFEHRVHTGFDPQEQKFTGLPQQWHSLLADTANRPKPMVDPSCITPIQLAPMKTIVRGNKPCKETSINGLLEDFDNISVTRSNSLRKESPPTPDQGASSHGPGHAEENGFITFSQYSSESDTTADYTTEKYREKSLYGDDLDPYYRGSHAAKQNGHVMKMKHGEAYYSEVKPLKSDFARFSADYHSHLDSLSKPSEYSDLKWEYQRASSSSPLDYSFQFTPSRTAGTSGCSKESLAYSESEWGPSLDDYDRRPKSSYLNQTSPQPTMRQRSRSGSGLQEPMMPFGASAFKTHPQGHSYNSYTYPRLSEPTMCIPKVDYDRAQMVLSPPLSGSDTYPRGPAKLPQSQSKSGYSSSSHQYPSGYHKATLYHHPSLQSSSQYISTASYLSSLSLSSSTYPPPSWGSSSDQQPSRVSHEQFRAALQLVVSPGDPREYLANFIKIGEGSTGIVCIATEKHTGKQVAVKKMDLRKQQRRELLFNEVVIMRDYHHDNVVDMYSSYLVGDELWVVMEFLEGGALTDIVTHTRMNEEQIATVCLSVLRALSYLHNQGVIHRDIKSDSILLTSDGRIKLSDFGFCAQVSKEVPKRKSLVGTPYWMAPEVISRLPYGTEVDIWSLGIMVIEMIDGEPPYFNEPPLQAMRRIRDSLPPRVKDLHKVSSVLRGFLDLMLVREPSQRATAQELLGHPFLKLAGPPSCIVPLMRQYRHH
# [8] = biological target: T2, Dual specificity tyrosine-phosphorylation-regulated kinase 2 (Homo sapiens) (UniProt Q92630); assay: Percentage DYRK2 activity remaining in the presence of 25uM inhibitor
# T2 sequence (whole entry): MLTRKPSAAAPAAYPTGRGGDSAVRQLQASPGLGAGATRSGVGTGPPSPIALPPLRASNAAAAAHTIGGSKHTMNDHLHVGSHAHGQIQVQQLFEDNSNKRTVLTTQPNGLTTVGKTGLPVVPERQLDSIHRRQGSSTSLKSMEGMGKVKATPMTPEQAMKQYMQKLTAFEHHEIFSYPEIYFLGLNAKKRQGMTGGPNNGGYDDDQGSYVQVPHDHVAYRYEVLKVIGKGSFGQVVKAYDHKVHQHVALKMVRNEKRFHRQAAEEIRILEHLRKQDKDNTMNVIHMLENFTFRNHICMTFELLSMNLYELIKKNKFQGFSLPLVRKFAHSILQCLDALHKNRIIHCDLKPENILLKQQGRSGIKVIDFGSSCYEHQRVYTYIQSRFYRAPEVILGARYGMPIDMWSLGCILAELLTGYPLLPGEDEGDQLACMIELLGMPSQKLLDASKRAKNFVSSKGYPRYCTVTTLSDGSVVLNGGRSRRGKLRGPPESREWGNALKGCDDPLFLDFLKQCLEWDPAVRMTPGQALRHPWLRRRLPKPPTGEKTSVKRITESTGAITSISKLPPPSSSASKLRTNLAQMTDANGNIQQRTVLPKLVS
# [9] = biological target: Serine/threonine-protein kinase PLK1 (Homo sapiens, UniProt P53350); assay: Percentage PLK1 activity remaining in the presence of 25uM inhibitor
# Serine/threonine-protein kinase PLK1, sequence (P53350 whole entry): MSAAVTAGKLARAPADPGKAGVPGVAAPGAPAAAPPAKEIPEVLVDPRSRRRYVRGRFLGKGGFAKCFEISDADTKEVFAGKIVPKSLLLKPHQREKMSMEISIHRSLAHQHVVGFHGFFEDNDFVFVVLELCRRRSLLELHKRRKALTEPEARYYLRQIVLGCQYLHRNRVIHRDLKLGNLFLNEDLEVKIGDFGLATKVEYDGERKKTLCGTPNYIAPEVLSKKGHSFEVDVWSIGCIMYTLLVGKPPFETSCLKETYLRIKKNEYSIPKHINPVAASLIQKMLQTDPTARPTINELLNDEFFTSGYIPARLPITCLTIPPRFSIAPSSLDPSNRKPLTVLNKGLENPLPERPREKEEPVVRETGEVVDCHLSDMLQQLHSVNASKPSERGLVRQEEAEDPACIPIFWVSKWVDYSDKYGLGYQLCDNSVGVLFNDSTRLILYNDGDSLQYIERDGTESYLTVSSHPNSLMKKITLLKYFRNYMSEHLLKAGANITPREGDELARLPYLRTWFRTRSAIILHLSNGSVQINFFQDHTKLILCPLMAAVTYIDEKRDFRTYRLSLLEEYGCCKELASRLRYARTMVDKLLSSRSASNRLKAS
# [10] = biological target: T3, MAP kinase-activated protein kinase 5 (Homo sapiens) (UniProt Q8IW41); assay: Percentage PRAK activity remaining in the presence of 25uM inhibitor
# T3 sequence (whole entry): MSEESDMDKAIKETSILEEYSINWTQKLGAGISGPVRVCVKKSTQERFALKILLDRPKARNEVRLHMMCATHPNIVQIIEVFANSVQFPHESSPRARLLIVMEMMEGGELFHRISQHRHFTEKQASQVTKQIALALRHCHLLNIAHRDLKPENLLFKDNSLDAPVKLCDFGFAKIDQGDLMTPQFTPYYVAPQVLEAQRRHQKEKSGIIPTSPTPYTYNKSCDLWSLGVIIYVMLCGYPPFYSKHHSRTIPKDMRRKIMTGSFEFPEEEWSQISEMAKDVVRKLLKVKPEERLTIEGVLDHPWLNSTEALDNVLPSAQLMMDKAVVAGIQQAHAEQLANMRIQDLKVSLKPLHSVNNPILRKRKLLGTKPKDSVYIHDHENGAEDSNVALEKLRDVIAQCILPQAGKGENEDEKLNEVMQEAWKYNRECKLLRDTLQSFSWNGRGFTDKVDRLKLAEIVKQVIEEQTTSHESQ
# [11] = biological target: T4, Serine/threonine-protein kinase Nek2 (Homo sapiens) (UniProt P51955); assay: Percentage NEK2a activity remaining in the presence of 0.01uM inhibitor
# T4 sequence (whole entry): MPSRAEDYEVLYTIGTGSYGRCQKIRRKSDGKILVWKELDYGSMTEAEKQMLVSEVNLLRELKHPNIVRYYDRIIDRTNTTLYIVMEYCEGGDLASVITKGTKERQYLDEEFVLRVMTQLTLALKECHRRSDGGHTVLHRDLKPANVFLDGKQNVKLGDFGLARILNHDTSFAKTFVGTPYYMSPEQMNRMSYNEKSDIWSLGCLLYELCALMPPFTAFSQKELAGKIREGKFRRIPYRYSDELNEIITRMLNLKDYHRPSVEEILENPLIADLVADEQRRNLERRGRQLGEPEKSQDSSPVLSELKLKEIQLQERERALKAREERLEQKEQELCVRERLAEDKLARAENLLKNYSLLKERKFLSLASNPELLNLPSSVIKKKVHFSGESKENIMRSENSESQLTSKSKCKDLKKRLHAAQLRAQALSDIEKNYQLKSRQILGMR
# [12] = biological target: Mitogen-activated protein kinase 1 (Homo sapiens) (UniProt P28482); assay: Percentage ERK2 activity remaining in the presence of 0.01uM inhibitor
# Mitogen-activated protein kinase 1 (Homo sapiens), sequence (P28482 whole entry): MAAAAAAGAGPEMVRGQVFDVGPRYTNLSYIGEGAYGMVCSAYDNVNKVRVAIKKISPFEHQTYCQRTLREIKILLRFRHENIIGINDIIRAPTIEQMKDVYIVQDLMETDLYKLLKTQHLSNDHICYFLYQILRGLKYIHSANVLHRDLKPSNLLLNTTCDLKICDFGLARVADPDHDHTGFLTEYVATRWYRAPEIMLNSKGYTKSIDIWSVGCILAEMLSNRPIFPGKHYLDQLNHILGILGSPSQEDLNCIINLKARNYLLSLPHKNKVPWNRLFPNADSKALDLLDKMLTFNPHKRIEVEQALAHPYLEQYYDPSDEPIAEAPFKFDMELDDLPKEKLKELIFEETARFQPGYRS
# [13] = biological target: Serine/threonine-protein kinase Chk2 (Homo sapiens) (UniProt O96017); assay: Percentage CHK2 activity remaining in the presence of 0.01uM inhibitor
# Serine/threonine-protein kinase Chk2 (Homo sapiens), sequence (O96017 whole entry): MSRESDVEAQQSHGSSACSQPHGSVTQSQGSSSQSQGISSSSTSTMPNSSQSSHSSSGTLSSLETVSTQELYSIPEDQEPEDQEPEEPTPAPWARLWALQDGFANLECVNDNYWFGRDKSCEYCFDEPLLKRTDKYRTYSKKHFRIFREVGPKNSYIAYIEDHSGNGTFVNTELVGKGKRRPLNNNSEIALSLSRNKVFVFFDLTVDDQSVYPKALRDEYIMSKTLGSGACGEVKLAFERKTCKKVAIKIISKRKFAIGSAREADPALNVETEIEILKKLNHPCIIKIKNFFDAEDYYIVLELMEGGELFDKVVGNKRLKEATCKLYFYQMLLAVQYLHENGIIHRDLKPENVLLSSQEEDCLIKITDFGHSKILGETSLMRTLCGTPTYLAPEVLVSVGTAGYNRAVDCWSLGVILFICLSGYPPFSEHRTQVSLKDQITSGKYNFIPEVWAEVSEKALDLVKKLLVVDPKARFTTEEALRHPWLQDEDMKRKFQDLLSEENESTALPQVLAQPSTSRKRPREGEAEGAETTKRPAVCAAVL
Compound,Activity [1] [%],Activity [2] [%],Activity [4] [%],Activity [6] [%],Activity [7] [%],Activity [8] [%],Activity [9] [%],Activity [10] [%],Activity [11] [%],Activity [12] [%],Activity [13] [%],also measured
NCCNS(=O)(=O)c1ccc(Cl)c2ccncc12,87,89,102,62,86,76,81,81,–,–,–,Activity ([3]; filed as antagonist): 47%; Activity ([5]; filed as antagonist): 42%
O=C(NCCCNc1nc(Nc2cccc(NC(=O)N3CCCC3)c2)ncc1I)c1cccs1,–,–,–,–,–,–,–,–,92,88,91,–
COc1cc(OC)c(/C=C2/C(=O)Nc3ccccc32)c(OC)c1,90,90,103,83,84,99,95,82,–,–,–,Activity [3]: 87%; Activity [5]: 88%
CN[C@@H]1C[C@H]2O[C@@](C)([C@@H]1OC)n1c3ccccc3c3c4c(c5c6ccccc6n2c5c31)C(=O)N[C@H]4O (stereo in doubt),–,–,–,–,–,–,–,–,85,–,96,–
Cc1n[nH]c2ccc(-c3cncc(OC[C@@H](N)Cc4c[nH]c5ccccc45)c3)cc12,–,–,–,–,–,–,–,–,–,78,–,–
